Assay results from patent US20220402867A1, “SULFO-SUBSTITUTED BIARYL COMPOUND OR SALT THEREOF, PREPARATION METHOD THEREFOR, AND USE THEREOF” (Shanghai Litedd Co., Ltd., priority 2019, published 2022).
Where two headings read alike, the source gives them in different places.

How the values were obtained:
GST-RORγ LBD (263-509) = molecular target: T1, GST-RORγ LBD (263-509) (Homo sapiens, UniProt P51449); test: TR-FRET assay of agonistic activity on RORγ receptor; type: biochemical; settings: for EC50: TR-FRET, GST-RORγ LBD with Biotin-SRC1; for Emax %: maximum activation rate, TOP of fitted curve
T1 construct: GST-RORγ LBD ((263-509) (produced at ChemPartner))
T1 sequence (P51449 263-509): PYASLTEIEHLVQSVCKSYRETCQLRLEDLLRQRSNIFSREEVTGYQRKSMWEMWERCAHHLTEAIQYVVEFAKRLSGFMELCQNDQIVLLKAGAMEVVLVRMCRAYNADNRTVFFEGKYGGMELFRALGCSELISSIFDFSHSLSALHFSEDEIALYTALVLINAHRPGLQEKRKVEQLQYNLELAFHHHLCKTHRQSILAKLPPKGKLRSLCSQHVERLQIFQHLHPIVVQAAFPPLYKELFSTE
Method: A time-resolved fluorescence resonance energy transfer (TR-FRET) assay was used for the compounds of the present disclosure, to determine the agonistic activity of the compounds on the RORγ protein receptor. The agonistic activity is expressed by the concentration for 50% of maximal effect (EC50). The experiment was performed basically with reference to the methods described in ONCOIMMUNOLOGY, 2016, VOL. 5, NO. 12, e1254854.
1. Preparation of RORγ Basal Buffer
A 100 mL basal buffer was prepared, mixed homogeneously and stored for use;
The compounds of the examples shown in the table below were prepared into solutions with DMSO as the solvent, serially diluted at 3-fold dilution to 10 concentrations starting from 10 mM, and added to the corresponding wells of a 384-well plate with each concentration of each compound in duplicate;
a. A 75 nM solution of GST-RORγ LBD ((263-509) (produced at ChemPartner)) and a 4 nM solution of Biotin-SRC1 (Glsbiochem) were prepared with the above basal buffer. The two solutions were 1:1 mixed evenly, and 10 μL of the mixed solution was added into each well of the above 384-well plate. The plate was immediately centrifugated at 1000 rpm for 10 seconds; b. A 1 nM solution of Anti-GST Eu (Cisbio, #61GSTKLA) and a 50 nM solution of SA-APC (Cisbio, […]) were prepared with the above basal buffer. The two solutions were 1:1 mixed evenly, and 10 μL of the mixed solution was added into each well of the above 384-well plate. The plate was immediately centrifugated at 1000 rpm for 10 seconds; c. The resulting 384-well plate was incubated at room temperature for 15 minutes. Data were read on an Envision microplate reader, EC50 values and E max % were calculated.
a. Readings were taken at 665 nm and 615 nm wavelengths respectively on the Envision Microplate Reader, and the ratios between them were normalized. b. Calculation was carried out with the following equation: […]
wherein X is the reading of compounds, Min is the reading of the blank solution, and Max is the reading of 10 μM SRC. c. The concentration-response curve data were fitted by a four-parameter logistic nonlinear regression model, and Emax was the TOP value of the fitted curve.

[1] = Pharmacokinetic (PK) assay in mice; type: in vivo; settings: CD-1 mice; for CL_obs: values marked **; for AUC(0-t) / Cmax / half-life / Vd / bioavailability: mouse, plasma; for Vd: read-out: Vss; for bioavailability: Po 5 mg/kg vs IV 1 mg/kg
Method: The PK of each compound was determined as follows: 6 CD-1 mice (obtained from Shanghai Lingchang Biotechnology Co., Ltd.) were divided into two groups, 3 mice in each group. One group was administered intravenously at a dose of 1 mg/kg, and the vehicle was 5% DMSO/40% PEG400/55% (20% 3-CD); one group was administered by oral gavage at a dose of 5 mg/kg, and the vehicle was DMSO/1% methylcellulose (1:99). Blood samples were collected from saphenous vein of lower leg in each group at 0, 0.083, 0.25, 0.5, 1, 2, 4, 6, 8 and 24 h after administration. Approximately 40 μL of the blood samples were collected into anticoagulant tubes containing EDTA-K2. Immediately after collection, the tubes were inverted at least 5 times to ensure uniform mixing, and then placed on ice. The blood samples collected at each time point were centrifuged at 4° C., 8000 rpm for 5 minutes to obtain plasma. Another 1.5 mL centrifuge tube was marked with the compound name, animal number, and time point, and the plasma was transferred to this tube. The plasma was stored at −80° C. until analysis.
Compound concentrations in plasma were determined by UPLC-MS/MS method, and the pharmacokinetic parameters were calculated by Phoenix WinNolin 6.4 pharmacokinetic software on the obtained data.

[2] = molecular target: T2, RORγt (RORγ-LBD chimeric receptor) (Homo sapiens, UniProt P51449); test: Luciferase reporter gene assay of RORγt agonistic activity in HEK293T cells; type: cell-based; parameters: Emax: dose or concentration left out as unconfirmed; settings: for Emax: HEK-293T
T2 construct: host or cells: HEK293T
T2 sequence (P51449 269-508 limits assumed): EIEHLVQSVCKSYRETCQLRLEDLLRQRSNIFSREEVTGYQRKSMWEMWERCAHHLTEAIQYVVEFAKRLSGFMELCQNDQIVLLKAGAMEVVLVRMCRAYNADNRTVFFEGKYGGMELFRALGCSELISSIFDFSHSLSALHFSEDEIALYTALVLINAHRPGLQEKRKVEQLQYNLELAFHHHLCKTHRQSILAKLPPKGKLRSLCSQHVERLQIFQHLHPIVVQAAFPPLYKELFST
Description: This assay was basically carried out according to the method described in the literature ONCOIMMUNOLOGY, 2016, VOL. 5, NO. 12, e1254854.
The RORγ-LBD coding sequence was inserted into pBIND plasmid (Promega, E1581). This expression vector and a reporter vector (pGL4.35 carrying a stably integrated luciferase reporter gene driven by GAL4 promoter) were co-expressed in HEK293T host cells. When the agonist binds to the corresponding chimeric receptor, the chimeric receptor binds to the GAL4 binding site on the reporter gene carrier and stimulates reporter gene expression. The agonistic activity of the compound on RORγ was determined according to the intensity of the chemiluminescence signal.
1.1 All test compounds were serially diluted at 3-fold dilution with DMSO, with 10 serial dilutions starting from 10 mM; LIT-00093 solution was prepared similarly. […] 1.4 The compound plate was sealed and shaken for 5 min.
Cells were cultured according to ATCC standard operation, and 6*10^6 HEK293T cells were seeded into 100 mm cell culture dishes, cultured overnight in a 37° C., 5% CO2 incubator, and then transfected. Compounds of corresponding concentrations were added for treatment, and the Steady-Glo™ kit (Lot E 2520) was used for further detection.
Chemiluminescence values were detected with Envision 2104; EC50 values were calculated.
% Activity was calculated with the following equation: […]
RLU: […] R L Upositive: average value of positive control R L Uvehicle: average value of negative control
The log values of the compound concentration and % Activity were fitted using Graphad 8.0, to calculate EC50s of the compounds.

[3] = Metabolic stability in human liver microsomes; type: in vitro ADME; settings: for microsomal CLint: 0.5 mg protein/mL
Description: (§1) According to standard methods of in vitro metabolic stability studies in the art, eg., the methods described in Kerns, Edward H. and Di Li (2008). Drug-like Properties: Concepts, Structure Design and Methods: from ADME to Toxicity Optimization. San Diego: Academic Press; Di, Li et al., Optimization of a Higher Throughput Microsomal Stability Screening Assay for Profiling Drug Discovery Candidates, J. Biomol. Screen. 2003, The method described in 8(4), 453, the liver microsomal metabolic stability test of the compounds of the present disclosure was carried out analogously as follows.
(§2) The incubation system contained 0.5 mg protein/mL microsomes, cofactors, and PBS, was pre-incubated at 37° C. for 3 min, and then added the substrate (i.e., the test compounds) to initiate the reaction. Samples were taken at 0, 1, 5, 10, 15, 20, 30 and 60 min from the start of the reaction, and an appropriate terminator was added to terminate the reaction.
(§3) The terminator was an ice acetonitrile solution containing 100 ng/mL tolbutamide and 100 ng/mL labetalol.
(§4) Sample treatment (n=3): each appropriate sample was added, vortexed and centrifuged at high speed. The supernatants were collected, and the substrate was detected by HPLC-MS/MS. The peak area at the 0 min was taken as 100%. The peak areas at other time points were converted to percentage of the remaining amount. The natural logarithms of the percentage of remaining amount at each time point was plotted against the incubation time, and the slope (−k) was calculated by linear regression. Then, Clint (uL/min/mg) and half-life (T½, min) of the compounds were calculated following the equation of the inherent clearance rate (Clint)=(k* volume of incubation solution)/mass of liver microsomes.

[4] = Metabolic stability in mouse liver microsomes; type: in vitro ADME, CD-1 mice
Description: as §1, §2, §3, §4

| Compound | EC50 (GST-RORγ LBD (263-509)) | Emax % (GST-RORγ LBD (263-509)) | CL_obs ([1]; IV 1 mg/kg) | AUC(0-t) ([1]; IV 1 mg/kg) | Cmax ([1]; IV 1 mg/kg) | half-life ([1]; IV 1 mg/kg) | Vd ([1]; IV 1 mg/kg, values marked *) | bioavailability [1] | AUC(0-t) ([1]; Po 5 mg/kg) | Cmax ([1]; Po 5 mg/kg) | half-life ([1]; Po 5 mg/kg) | Emax [2] | half-life [3] | microsomal CLint [3] | % Remaining (T = 60 min) [3] | further results |
| --- | --- | --- | --- | --- | --- | --- | --- | --- | --- | --- | --- | --- | --- | --- | --- | --- |
| CCS(=O)(=O)c1ccc(C(COC)C(=O)Nc2cc(Cl)c(-c3ccc(S(=O)(=O)C4CC4)cc3)c(Cl)c2)cc1 (single isomer, unassigned) [Example 41, (S)—N-(2,6-dichloro-4′-(cyclopropylsulfonyl)-[1,1′-biphenyl]-4-yl)-2-(4-(ethylsulfonyl)phenyl)-3-methoxypropionamide or (R)—N-(2,6-dichloro-4′-(cyclopropylsulfonyl)-[1,1′-biphenyl]-4-yl)-2-(4-(ethylsulfonyl)phenyl)-3-methoxypropionamide] | 24.6 nM | 174.7% | 15.4** mL/min/kg | 1060 ng·h/mL | 601 ng/mL | 1.7 h | 2.02 L/kg | 116% | 6380 ng·h/mL | 1450 ng/mL | 2.72 h |  |  |  |  |  |
| CC(C)Cc1ccc(-c2c(Cl)cc(NC(=O)Cc3ccc(S(C)(=O)=O)cc3)cc2Cl)cc1C#N [LIT-00093, reference compound] |  |  |  |  |  |  |  |  |  |  |  | 83.9% | 0.0783 h | 295 µL/min/mg | 0% | EC50 ([2]; HEK293T, GAL4 luciferase reporter, read-out: EC50): 116 nM |
| COC[C@H](C(=O)Nc1cc(Cl)c(-c2ccc(S(=O)(=O)C3CC3)cc2)c(Cl)c1)c1ccc(S(C)(=O)=O)cc1 (single isomer, unassigned) [Example 35, (S)—N-(2,6-dichloro-4′-(cyclopropylsulfonyl)-[1,1′-biphenyl]-4-yl)-3-methoxy-2-(4-(methylsulfonyl)phenyl)propanamide or (R)—N-(2,6-dichloro-4′-(cyclopropylsulfonyl)-[1,1′-biphenyl]-4-yl)-3-methoxy-2-(4-(methylsulfonyl)phenyl)propanamide] |  |  | 2.40** mL/min/kg | 6880 ng·h/mL | 1340 ng/mL | 3.56 h | 0.83 L/kg | 32.8% | 9140 ng·h/mL | 700 ng/mL | 12.3 h |  |  |  |  |  |
| CC(C)(C[C@H]1CN(S(=O)(=O)c2cccc(C(F)(F)F)c2)c2cc(-c3cc(F)cc(OC(F)F)c3)ccc2O1)C(=O)O [LYC-55716, reference compound] |  |  |  | 256 ng·h/mL | 353 ng/mL | 2.63 h |  | 21% | 269 ng·h/mL | 52.6 ng/mL | 5.35 h |  |  |  |  | Vd ([1]; IV 1 mg/kg): 7.23 L/kg |
| CS(=O)(=O)c1ccc(C(CO)C(=O)Nc2cc(Cl)c(-c3ccc(S(=O)(=O)C4CC4)cc3)c(Cl)c2)cc1 (single isomer, unassigned) [Example 37, (S)—N-(2,6-Dichloro-4′-(cyclopropylsulfonyl)-[1,1′-biphenyl]-4-yl)-2-(4-(methylsulfonyl)phenyl)-3-hydroxypropionamide or (R)—N-(2,6-dichloro-4′-(cyclopropylsulfonyl)-[1,1′-biphenyl]-4-yl)-2-(4-(methylsulfonyl)phenyl)-3-hydroxypropionamide] | 27.4 nM | 197.0% | 7.21** mL/min/kg | 2170 ng·h/mL | 1320 ng/mL | 2.2 h | 1.27 L/kg | 15.8% | 1440 ng·h/mL | 294 ng/mL | 2.6 h |  |  |  |  |  |
| CS(=O)(=O)c1ccc(-c2c(Cl)cc(NC(=O)Cc3ccc(S(=O)(=O)CCO)cc3)cc2Cl)cc1 [Example 14, N-(2,6-Dichloro-4′-(methylsulfonyl)-[1,1′-biphenyl]-4-yl)-2-(4-(2-hydroxyethylsulfonyl)phenyl)acetamide] |  |  |  |  |  |  |  |  |  |  |  | 40.7% | 1.55 h | 14.9 µL/min/mg | 61.7% | EC50 [2]: 225 nM; % Remaining (T = 60 min) ([4]; 60 min): 87.3%; half-life ([4]; CD-1): > 2.42 h; microsomal CLint ([4]; CD-1, 0.5 mg protein/mL): < 9.6 µL/min/mg |
